Legend:
[1] = biological target: G-protein coupled receptor 6 (Homo sapiens, UniProt P46095); experiment: Binding affinity to human GPR6 expressed in HEK293 cells assessed as reduction in cAMP level incubated for 1 hr by HTRF assay; type: cell-based
[2] = biological target: T1, Transient receptor potential cation channel subfamily V member 2 (Homo sapiens, UniProt Q9Y5S1); experiment: Agonist activity at ionomycin-stimulated TRPV2 (unknown origin) channel desensitization in presence of lysophosphatidylcholine
T1 sequence (Q9Y5S1 whole entry): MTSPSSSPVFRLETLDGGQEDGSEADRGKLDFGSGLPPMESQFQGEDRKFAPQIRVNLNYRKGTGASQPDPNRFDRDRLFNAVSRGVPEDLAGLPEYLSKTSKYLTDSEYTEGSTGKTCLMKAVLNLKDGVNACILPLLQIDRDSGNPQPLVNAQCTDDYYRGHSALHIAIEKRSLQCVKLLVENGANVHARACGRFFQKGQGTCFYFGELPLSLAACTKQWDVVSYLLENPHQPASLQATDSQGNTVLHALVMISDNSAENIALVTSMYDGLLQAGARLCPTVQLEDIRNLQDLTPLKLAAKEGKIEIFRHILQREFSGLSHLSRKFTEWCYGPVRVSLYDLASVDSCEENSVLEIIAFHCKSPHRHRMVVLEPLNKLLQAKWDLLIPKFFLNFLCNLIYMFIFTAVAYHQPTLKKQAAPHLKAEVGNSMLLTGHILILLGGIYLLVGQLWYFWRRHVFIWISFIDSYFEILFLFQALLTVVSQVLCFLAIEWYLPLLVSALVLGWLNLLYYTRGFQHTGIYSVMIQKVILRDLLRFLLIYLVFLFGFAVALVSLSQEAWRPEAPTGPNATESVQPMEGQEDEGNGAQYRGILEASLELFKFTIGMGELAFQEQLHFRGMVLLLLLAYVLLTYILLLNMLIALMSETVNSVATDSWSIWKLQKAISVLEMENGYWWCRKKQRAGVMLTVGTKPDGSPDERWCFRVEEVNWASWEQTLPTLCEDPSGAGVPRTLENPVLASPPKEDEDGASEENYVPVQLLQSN

[3] = biological target: T2, Cytochrome P450 1A1 (Homo sapiens, UniProt P04798); experiment: Inhibition of human recombinant CYP1A1 preincubated with NADPH for 20 mins and measured after 30 min by Lineweaver-burk plots analysis; type: ADME
[4] = biological target: T3, Cytochrome P450 2B6 (Homo sapiens, UniProt P20813); experiment: Mixed inhibition of recombinant CYP2B6 (unknown origin) using coumarin as substrate in presence of NADPH-generating system by Lineweaver-burk plots analysis; type: ADME
T3 sequence (P20813 whole entry): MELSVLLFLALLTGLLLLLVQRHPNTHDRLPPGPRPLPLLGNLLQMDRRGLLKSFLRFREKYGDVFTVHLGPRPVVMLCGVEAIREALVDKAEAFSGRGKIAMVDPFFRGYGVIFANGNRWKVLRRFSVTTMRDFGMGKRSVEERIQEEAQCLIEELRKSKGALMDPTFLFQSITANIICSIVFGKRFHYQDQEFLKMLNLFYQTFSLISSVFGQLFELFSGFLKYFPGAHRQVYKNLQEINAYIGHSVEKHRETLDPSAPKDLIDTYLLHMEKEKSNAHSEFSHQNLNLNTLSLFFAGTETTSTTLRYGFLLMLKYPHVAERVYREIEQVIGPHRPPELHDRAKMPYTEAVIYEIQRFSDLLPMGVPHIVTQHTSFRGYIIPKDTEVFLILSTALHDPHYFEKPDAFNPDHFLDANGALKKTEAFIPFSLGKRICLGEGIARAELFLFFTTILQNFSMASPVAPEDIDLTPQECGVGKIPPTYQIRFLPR

[5] = biological target: Cytochrome P450 2C19 (Homo sapiens, UniProt P33261); experiment: Mixed inhibition of CYP2C19 (unknown origin); type: ADME
[6] = biological target: Transient receptor potential cation channel subfamily V member 4 (Homo sapiens, UniProt Q9HBA0); experiment: Agonist activity at ionomycin-stimulated TRPV4 (unknown origin) channel desensitization in presence of 4alphaPDD
[7] = biological target: T4, Transient receptor potential cation channel subfamily A member 1 (Homo sapiens, UniProt O75762); experiment: Agonist activity at TRPA1 (unknown origin) channel desensitization in presence of isothiocyanate
[8] = biological target: Transient receptor potential cation channel subfamily M member 8 (Homo sapiens, UniProt Q7Z2W7); experiment: Antagonist activity at TRPM8 (unknown origin) desensitization in presence of icilin
[9] = biological target: T4, Transient receptor potential cation channel subfamily A member 1; experiment: Agonist activity at TRPA1 (unknown origin) activation
[10] = biological target: T5, Transient receptor potential cation channel subfamily V member 3 (Homo sapiens) (UniProt Q8NET8); experiment: Agonist activity at ionomycin-stimulated TRPV3 (unknown origin) activation assessed as efficacy relative to control
T5 sequence (whole entry): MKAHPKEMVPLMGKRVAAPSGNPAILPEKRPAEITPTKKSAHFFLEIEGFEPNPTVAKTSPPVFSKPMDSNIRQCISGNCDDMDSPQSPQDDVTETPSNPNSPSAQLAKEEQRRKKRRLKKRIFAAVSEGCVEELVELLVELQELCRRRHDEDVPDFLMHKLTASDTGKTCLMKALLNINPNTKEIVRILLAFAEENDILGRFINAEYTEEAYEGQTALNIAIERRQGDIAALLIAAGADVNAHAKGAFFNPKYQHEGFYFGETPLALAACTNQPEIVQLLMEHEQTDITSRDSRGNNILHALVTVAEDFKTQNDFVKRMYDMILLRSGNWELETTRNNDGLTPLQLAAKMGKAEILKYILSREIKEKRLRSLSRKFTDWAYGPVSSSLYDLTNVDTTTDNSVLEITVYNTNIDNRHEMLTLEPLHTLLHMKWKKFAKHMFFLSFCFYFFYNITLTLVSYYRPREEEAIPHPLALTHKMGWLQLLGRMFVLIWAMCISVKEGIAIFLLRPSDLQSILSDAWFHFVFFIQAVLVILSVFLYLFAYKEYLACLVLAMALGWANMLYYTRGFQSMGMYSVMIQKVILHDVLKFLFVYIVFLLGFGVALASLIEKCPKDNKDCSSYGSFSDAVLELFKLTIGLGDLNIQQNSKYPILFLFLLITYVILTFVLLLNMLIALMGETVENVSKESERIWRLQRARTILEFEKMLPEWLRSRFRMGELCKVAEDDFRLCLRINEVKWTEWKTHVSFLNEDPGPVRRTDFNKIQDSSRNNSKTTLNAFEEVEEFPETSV

[11] = biological target: T2, Cytochrome P450 1A1; experiment: Inhibition of recombinant CYP1A1 (unknown origin) preincubated with NADPH for 20 mins and measured after 30 min; type: ADME
[12] = biological target: T6, Transient receptor potential cation channel subfamily V member 2 (Homo sapiens) (UniProt Q9Y5S1); experiment: Agonist activity at ionomycin-stimulated TRPV2 (unknown origin) activation assessed as efficacy relative to control; details: filed as agonist
T6 sequence (whole entry): T1 sequence (Q9Y5S1 whole entry)

T4 sequence (O75762 whole entry): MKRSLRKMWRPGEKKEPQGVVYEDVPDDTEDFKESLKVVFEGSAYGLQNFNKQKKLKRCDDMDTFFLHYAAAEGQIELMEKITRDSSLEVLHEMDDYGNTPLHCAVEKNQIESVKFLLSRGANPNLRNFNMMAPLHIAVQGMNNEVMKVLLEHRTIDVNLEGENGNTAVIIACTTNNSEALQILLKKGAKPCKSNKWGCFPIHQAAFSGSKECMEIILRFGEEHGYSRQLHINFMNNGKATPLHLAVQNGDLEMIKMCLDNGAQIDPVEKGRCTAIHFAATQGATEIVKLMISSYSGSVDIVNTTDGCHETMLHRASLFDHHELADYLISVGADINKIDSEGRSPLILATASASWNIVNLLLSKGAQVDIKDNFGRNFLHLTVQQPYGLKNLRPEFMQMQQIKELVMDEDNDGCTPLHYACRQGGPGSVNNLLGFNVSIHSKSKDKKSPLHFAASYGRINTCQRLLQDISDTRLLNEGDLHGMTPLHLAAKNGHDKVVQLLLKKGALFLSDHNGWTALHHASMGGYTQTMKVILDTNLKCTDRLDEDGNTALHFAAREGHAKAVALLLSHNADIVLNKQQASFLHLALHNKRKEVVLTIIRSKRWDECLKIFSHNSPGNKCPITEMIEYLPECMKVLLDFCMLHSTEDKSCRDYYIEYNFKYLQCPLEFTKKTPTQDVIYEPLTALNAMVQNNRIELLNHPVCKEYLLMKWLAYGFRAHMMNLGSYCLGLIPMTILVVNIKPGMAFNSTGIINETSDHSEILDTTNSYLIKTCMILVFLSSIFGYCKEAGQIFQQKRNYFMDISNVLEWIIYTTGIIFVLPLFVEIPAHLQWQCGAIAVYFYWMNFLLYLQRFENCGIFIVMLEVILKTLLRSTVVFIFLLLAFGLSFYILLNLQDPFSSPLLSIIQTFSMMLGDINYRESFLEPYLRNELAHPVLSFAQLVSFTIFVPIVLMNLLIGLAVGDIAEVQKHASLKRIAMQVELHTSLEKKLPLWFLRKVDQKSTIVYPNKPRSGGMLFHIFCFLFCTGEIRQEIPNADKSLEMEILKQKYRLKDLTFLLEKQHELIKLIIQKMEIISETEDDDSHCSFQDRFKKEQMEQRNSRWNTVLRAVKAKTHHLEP
T2 sequence (P04798 whole entry): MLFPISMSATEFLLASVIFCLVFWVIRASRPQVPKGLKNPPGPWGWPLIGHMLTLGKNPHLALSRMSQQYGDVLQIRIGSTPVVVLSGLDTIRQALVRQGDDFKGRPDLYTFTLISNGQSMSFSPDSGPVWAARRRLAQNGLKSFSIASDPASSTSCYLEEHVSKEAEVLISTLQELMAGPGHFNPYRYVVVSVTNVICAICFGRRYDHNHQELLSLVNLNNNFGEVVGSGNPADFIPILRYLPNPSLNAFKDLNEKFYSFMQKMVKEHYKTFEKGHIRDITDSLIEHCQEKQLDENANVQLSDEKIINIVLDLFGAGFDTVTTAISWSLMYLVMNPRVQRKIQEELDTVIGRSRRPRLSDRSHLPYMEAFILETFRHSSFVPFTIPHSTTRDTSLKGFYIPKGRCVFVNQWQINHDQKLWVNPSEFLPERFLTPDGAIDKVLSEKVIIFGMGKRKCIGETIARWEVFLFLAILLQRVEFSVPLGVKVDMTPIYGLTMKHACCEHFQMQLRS
Sequence of Cytochrome P450 2C19 (P33261 whole entry): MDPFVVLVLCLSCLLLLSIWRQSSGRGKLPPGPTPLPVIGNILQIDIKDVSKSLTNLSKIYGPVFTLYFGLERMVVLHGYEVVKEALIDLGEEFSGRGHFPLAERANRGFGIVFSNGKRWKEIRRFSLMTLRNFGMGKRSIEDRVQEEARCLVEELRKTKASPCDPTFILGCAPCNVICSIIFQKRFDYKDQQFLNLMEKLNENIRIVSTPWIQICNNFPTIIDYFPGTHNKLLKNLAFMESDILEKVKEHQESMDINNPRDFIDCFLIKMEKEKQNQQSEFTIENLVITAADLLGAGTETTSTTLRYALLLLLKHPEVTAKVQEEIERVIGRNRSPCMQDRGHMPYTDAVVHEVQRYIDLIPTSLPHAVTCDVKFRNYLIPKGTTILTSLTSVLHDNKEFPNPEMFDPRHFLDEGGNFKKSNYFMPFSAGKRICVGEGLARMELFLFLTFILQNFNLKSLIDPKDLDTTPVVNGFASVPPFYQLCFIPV
Sequence of G-protein coupled receptor 6 (P46095 whole entry): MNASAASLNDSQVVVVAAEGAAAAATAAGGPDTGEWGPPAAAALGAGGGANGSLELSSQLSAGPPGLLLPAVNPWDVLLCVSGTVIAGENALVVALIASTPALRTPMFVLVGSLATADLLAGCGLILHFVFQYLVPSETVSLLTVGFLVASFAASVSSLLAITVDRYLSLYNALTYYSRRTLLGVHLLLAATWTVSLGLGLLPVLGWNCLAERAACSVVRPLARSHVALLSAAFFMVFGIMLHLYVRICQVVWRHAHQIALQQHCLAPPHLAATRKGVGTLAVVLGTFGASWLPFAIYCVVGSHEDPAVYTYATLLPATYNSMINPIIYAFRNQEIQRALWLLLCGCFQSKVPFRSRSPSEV
Sequence of Transient receptor potential cation channel subfamily V member 4 (Q9HBA0 whole entry): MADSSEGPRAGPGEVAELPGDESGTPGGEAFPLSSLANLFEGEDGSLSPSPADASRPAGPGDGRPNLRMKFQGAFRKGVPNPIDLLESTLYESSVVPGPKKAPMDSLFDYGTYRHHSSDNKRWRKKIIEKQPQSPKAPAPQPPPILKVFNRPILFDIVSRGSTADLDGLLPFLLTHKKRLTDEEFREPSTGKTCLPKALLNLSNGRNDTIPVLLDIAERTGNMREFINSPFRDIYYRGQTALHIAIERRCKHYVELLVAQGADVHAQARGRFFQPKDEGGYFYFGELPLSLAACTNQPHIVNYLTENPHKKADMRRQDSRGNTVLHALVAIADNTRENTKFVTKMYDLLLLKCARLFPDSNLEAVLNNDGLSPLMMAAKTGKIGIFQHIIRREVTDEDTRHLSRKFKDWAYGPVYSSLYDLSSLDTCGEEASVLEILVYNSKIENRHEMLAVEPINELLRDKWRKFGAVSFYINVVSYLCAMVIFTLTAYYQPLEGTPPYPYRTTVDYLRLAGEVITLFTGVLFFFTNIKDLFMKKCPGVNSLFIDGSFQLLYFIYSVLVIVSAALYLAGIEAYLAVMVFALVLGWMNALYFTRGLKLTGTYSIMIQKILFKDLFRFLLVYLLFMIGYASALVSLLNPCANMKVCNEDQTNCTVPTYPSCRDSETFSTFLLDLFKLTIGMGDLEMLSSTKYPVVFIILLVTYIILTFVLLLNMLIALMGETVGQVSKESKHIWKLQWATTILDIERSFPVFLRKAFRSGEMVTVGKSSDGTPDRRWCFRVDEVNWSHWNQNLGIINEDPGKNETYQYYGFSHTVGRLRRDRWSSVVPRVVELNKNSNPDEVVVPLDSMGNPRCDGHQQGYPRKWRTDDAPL
Sequence of Transient receptor potential cation channel subfamily M member 8 (Q7Z2W7 whole entry): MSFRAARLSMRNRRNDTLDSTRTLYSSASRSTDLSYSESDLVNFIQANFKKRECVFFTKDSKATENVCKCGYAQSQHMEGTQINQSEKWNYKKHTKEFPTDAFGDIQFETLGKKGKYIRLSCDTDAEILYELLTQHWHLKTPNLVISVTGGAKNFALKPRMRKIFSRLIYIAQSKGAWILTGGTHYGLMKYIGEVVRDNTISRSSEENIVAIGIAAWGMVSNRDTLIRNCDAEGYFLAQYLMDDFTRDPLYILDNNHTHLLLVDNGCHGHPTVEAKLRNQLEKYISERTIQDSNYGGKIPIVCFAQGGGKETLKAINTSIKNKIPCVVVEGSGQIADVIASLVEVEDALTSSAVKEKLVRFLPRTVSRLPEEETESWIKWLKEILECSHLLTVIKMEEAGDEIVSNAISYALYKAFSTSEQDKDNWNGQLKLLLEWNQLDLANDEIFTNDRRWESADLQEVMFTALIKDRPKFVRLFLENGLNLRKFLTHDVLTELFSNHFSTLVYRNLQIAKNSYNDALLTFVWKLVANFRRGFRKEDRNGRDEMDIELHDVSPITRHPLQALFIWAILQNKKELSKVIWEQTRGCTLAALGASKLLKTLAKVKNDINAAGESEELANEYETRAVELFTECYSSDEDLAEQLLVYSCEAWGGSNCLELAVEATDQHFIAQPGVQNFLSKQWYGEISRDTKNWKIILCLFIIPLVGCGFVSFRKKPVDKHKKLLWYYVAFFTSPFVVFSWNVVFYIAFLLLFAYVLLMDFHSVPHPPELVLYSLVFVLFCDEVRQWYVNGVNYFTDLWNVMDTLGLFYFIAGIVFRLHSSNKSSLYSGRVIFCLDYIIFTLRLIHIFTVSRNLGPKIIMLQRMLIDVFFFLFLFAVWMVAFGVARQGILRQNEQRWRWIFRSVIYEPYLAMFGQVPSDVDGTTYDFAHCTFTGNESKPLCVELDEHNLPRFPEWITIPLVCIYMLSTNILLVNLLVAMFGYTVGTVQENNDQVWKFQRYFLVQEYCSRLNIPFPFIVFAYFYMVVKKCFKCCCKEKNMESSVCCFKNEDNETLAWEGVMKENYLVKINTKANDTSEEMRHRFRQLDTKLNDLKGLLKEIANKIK

Structure (SMILES): C=C(C)[C@@H]1CCC(C)=C[C@H]1c1c(O)cc(CCC)cc1O [CANNABIDIVARIN]
- EC50 [1]: 2400 nM
- IC50 [2]: 31000 nM
- Ki [3]: 1600 nM
- Ki [4]: 1300 nM
- IC50 [5]: 3700 nM
- IC50 [6]: 2900 nM
- IC50 [7]: 1300 nM
- IC50 [8]: 900 nM
- EC50 [9]: 420 nM
- Efficacy [10]: 16%
- IC50 [11]: 60 nM
- Efficacy [12]: 50%

Reference: ChEMBL document CHEMBL5096151, “Phytocannabinoid Pharmacology: Medicinal Properties of Cannabis sativa Constituents Aside from the "Big Two"” (J Nat Prod, 2021)
